Laboratory results from patent publication US20180243297A1, “Amino pyrazine derivatives as phosphatidylinositol 3-kinase inhibitors” (Novartis AG, priority 2014, published 2018).
Like-named read-outs stand apart in the source and are kept apart here. Blank lines part the entries; values can stand above or below the compound they belong to.

Legend:
[1] = molecular target: T1, PI 3-kinase gamma (U937 cells, MIP1α-stimulated AKT phosphorylation) (Homo sapiens, UniProt P48736); assay: Cellular U937 AKT assay (HTRF), assay K2; type: cell-based; conditions: HTRF format, read-out: Assay K2 PI3Kγ IC50
T1 construct: endogenous in cells; host or cells: U937 human monocyte cell line
T1 sequence (P48736 whole entry): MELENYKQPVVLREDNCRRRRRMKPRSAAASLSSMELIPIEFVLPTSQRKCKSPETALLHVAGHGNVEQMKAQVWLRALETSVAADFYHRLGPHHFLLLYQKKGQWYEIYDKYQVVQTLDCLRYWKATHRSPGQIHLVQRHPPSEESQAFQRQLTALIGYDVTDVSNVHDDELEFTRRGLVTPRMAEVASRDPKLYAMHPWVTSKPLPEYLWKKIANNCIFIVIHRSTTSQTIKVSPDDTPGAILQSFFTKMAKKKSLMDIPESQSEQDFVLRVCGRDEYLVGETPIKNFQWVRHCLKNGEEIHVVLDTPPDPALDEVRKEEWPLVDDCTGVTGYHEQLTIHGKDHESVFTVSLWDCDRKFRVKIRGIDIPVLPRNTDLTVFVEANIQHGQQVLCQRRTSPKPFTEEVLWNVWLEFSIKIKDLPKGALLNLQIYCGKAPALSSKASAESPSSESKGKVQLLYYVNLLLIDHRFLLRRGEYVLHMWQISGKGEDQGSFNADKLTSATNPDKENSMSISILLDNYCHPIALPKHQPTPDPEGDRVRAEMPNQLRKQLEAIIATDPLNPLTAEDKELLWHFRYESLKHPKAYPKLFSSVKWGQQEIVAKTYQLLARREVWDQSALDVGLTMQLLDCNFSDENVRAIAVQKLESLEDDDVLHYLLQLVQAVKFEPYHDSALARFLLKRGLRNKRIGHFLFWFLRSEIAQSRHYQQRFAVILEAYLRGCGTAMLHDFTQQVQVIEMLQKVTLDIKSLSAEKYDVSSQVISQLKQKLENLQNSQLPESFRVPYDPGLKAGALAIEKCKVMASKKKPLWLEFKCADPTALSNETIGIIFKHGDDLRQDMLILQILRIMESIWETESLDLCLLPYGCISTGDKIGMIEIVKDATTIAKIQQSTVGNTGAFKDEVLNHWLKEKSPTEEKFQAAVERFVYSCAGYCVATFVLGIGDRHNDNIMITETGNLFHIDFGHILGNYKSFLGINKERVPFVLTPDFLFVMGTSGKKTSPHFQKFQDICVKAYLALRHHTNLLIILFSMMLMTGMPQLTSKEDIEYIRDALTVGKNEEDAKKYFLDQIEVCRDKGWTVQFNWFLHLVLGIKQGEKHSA
Method: (§1) In assays K1 and K2, the compounds were tested for their ability to inhibit the production of phosphorylated AKT (Protein Kinase B) generated in a PI 3-kinase gamma isoform-dependent process in a U937 human cell line.
Cellular U937 AKT Assay for PI 3-Kinase Gamma (K2)
U937 cells are split every 3-4 days: 5×10^6 cells/flask (175 cm^2) in 40 ml.
Semi-automated preparation of cell lysates: Cells were resuspended in HBSS, seeded (200′000 cells/well/60 μl) into a 384-well plate and incubated in a humidified 37° C., 5% CO2 incubator for 1.5 hours. The compounds were diluted with HBSS and 40 μl were added to the starved cells (except for wells 24 I-P). […] The cells were then incubated for 30 minutes at 37° C. and 5% CO2. Stimulation occurred during 3 minutes by addition of 20 μl MIP1α (final 10 ng/ml, diluted in HBSS) in the incubator. Wells 24 A-H were only stimulated with HBSS.
The stimulation was then stopped by putting the cell plates on ice (filled with cold water). The cells were then centrifuged at 1200 rpm and 4° C. for 3 minutes.
80 μl of supernatant was removed. The cells were again centrifuged at 1200 rpm and 4° C. for 3 minutes. The supernatant was then removed by turning plates upside down and 30 μl of lysis buffer were added. The plate was incubated at room temperature for 30 minutes under shaking. 16 μl were then transferred to a ProxiPlate Plus 384-well. […]

[2] = molecular target: PI 3-kinase alpha (Homo sapiens, UniProt P42336); assay: Kinase Glo luminescent kinase assay (Kglo), assay A; type: biochemical; conditions: read-out: Assay A PI3Kα IC50
Sequence of PI 3-kinase alpha (P42336 whole entry): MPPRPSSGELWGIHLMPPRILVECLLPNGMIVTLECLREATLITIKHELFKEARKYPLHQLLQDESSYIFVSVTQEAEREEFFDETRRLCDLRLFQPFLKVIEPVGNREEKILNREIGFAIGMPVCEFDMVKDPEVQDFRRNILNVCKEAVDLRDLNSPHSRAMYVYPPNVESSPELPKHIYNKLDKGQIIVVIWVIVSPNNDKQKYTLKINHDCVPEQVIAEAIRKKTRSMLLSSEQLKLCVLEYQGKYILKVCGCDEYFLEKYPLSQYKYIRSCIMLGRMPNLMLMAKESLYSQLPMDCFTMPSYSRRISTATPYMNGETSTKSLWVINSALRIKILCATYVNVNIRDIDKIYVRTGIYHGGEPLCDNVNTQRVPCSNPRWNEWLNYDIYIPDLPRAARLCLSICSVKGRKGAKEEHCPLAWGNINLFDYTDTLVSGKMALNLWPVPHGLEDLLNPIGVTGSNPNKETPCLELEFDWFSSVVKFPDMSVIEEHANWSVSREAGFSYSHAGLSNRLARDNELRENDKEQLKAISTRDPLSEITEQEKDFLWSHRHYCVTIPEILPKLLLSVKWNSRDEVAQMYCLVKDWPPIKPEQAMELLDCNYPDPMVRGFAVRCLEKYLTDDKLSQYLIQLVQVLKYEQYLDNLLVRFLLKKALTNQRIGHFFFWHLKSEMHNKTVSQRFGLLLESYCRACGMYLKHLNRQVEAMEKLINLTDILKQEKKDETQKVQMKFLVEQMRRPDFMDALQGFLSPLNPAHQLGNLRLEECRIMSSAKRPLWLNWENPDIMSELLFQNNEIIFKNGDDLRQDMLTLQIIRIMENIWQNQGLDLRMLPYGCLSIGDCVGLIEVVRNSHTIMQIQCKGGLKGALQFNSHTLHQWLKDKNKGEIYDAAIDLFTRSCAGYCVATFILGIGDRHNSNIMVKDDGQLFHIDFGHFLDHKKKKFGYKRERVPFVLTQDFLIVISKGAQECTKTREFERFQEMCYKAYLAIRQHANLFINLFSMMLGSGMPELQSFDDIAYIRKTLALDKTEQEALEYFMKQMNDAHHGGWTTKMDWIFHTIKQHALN
Sequence of PI 3-kinase alpha (P27986 461-568 partner limits assumed): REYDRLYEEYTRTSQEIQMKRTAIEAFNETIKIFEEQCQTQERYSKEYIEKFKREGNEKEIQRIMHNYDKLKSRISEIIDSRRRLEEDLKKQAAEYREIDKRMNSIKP
Method: (§2) Kinase Glo Luminescent Kinase Assay (Kglo) for Pb 3-Kinase Alpha (A), Pb 3-Kinase Beta (B), Vps34 (C), Pb 4-Kinase Beta (D)
(§3) The Kinase Glo Luminescent Kinase Assay (Promega, Madison/Wis., USA) is a homogeneous HTS method of measuring kinase activity by quantifying the amount of ATP remaining in solution following a kinase reaction.
(§4) L-α-phosphatidylinositol (PI), provided as 10 mg/ml solution in methanol, was transferred into a glass tube and dried under a nitrogen beam. It was then resuspended in 3% OctylGlucoside (1-0-n-octyl-beta-D-glucopyranoside) by vortexing and stored at 4° C. 5 μL of a mix of PI/OctylGlucoside with the PI 3-kinase alpha and PI 3-kinase beta subtypes, or Vps34 or PI 4-kinase beta were added. Kinase reactions were started by the addition of 5 μl of an ATP-mix containing in a final volume 10 μL 10 mM TRIS-HCl pH 7.5, 3 mM MgCl2, 50 mM NaCl, 0.05% CHAPS, 1 mM DTT and 1 μM ATP at room temperature.
(§5) All fits were performed with the program XLfit4 (ID Business Solutions, Guildford, UK).

[3] = molecular target: PI 3-kinase delta (Homo sapiens, UniProt O00329); assay: TR-FRET Adapta assay, assay F
Sequence of PI 3-kinase delta (P27986 461-568 partner limits assumed, one chain of several): as the sequence (P27986 461-568 partner limits assumed) above
Method: (§6) TR-FRET Adapta Assay for PI 3-Kinase Gamma (E), PI 3-Kinase Delta (F)
(§7) The TR-FRET Adapta™ Universal Kinase Assay Kit was purchased from lnvitrogen Corporation (Carlsbad/CA, USA) (Cat. No. PV5099).
(§8) PIK3CD substrate phosphatidylinositol (PI) was obtained from lnvitrogen (vesicules consisting of 2 mM phosphatidylinositol (PI) in 50 mM HEPES pH7.5; Cat. No. PV5371). PIK3CG substrate phosphatidylinositol-4,5-bisphosphate (PIP(4,5)2 was obtained from lnvitrogen (PIP2:PS large unilamellar vesicules consisting of 1 mM PIP2: 19 mM PS in 50 mM HEPES pH7.5, 3 mM MgCl2, 1 mM EGTA; Cat. No. PV5100).
(§9) The Adapta™ assay can be divided into two phases: a kinase reaction phase and an ADP detection phase. In the kinase reaction phase, all kinase reaction components are added to the well and the reaction is allowed to incubate for a set period of time specific for each kinase. […] In the presence of an inhibitor, the amount of ADP formed by the kinase reaction is reduced, and the resulting intact antibodytracer interaction maintains a high TR-FRET signal.
(§10) 50 nL of compound dilutions were dispensed onto white 384-well small volume polystyrene plate. […]
(§11) Data are analyzed using Excel fit software or Graphpad Prism. IC50 values were derived by fitting a sigmoidal dose-response curve to a plot of assay readout over inhibitor concentration. […]

[4] = molecular target: PI 3-kinase gamma (Homo sapiens, UniProt P48736); assay: TR-FRET Adapta assay, assay E; type: biochemical
Sequence of PI 3-kinase gamma (P48736 whole entry): as the sequence (P48736 whole entry) above
Method: as §6, §7, §8, §9, §10, §11

[5] = tested on: IL-8-induced neutrophil shape change in human whole blood; assay: Whole blood neutrophil shape change assay, assay L; type: cell-based; conditions: read-out: Assay L WBSC IC50
Method: Whole Blood Neutrophil Shape Change Assay (L)
IL-8 was made up to 2 μM stocks in 0.1% bovine serum albumin/PBS and stored at −80° C. On the day IL-8 was diluted in PBS (phosphate buffered saline) 10 minutes before use. IL-8 was used at final concentration of 2 nM and a concentration range from 0.003 to 200 nM for the donor dose response curve.
Assay fixative solution was prepared fresh each day from 10× concentrated CellFlX™ solution diluted 1:10 in sterile distilled water and then 1:4 with PBS. Assay fixative solution was kept on ice prior to use.
A 10× lysis buffer was prepared in advance by dissolving 20.75 g NH4Cl and 2.5 g KHCO3 in 250 ml sterile H2O. This 10× lysis buffer was filtered under sterile conditions and stored for up to two weeks at 4° C. On the day a 1× lysis solution was prepared with sterile distilled H2O and kept on ice prior to use.
The test compounds were prepared as 10 mM stock solutions in 100% DMSO and were stored at 4° C. Once in use for an assay 10 mM stock compounds were thawed and stored at RT protected from light. Compound dilutions were prepared fresh on the day. The first series of dilutions in 100% DMSO were done first thing in the morning. Only once blood had been collected and arrived in laboratory was the next set of dilutions into PBS carried out (1:10 PBS, 10% DMSO). This limited the exposure of diluted compound to plastic and made sure the exposure timing was consistent between assays.
Compound dilutions in 100% DMSO were prepared as described previously. Human whole blood was collected in K2 EDTA Vacutainers. Once blood was in the laboratory, compound dilutions into PBS were carried out as described previously and depicted in Table 1.
The outer wells of the deep well assay plate were filled with 1200 μl of sterile distilled H2O in an effort to limit edge effects (rows A1-H1, A1-A12, A12-H12).
An IL-8 dose response was determined for each blood donor examined, to monitor the donor response to IL-8. […] In addition the assay window without DMSO was also assessed each day. […]

[6] = Microsomal clearance assay, assay M; type: in vitro ADME; conditions: intrinsic clearance in rat liver microsomes
Method: The experiments were performed in 96-well glass plates at 37° C. on an automated Tecan EVO platform. Test compounds at a concentration of 10 mM in pure DMSO were diluted 1:1000 in water to 10 μM. […] Reactions were initiated by the addition of 150 μL of a cofactor solution containing 2 mM NADPH.

[7] = molecular target: T1, PI 3-kinase gamma (U937 cells, MIP1α-stimulated AKT phosphorylation); assay: Cellular U937 AKT assay (MSD), assay K1; type: cell-based; conditions: MSD format, read-out: Assay K1 PI3Kγ IC50
Method: as §1
Cellular U937 AKT Assay for PI 3-Kinase Gamma (K1)
Cells are incubated at 37° C., 5% CO2.
Before beginning the cell manipulations described below, the MSD (Meso Scale Discovery) assay plate is blocked by addition of 150 μl/well blocking buffer supplied and incubated with shaking for a minimum of one hour at room temperature. All steps of the assay must be performed quickly, with accurately timed incubation periods and observing temperature controls where indicated.
falcon tube, counted and centrifuged for eight minutes at 300 g at room temperature. Supernatant is aspirated, the cell pellet resuspended and washed once in HBSS (Hank's Balanced Salt Solution) by centrifugation for eight minutes at 300 g at room temperature. […] Assay plates are incubated for 1.5 hours at 37° C., 5% CO2 to allow background AKT phosphorylation to reduce before the compound stimulation step.
Compound titrations are prepared in a fresh flat-bottomed, 96-well plate, by 10-fold serial dilution of 40 μM into HBSS 0.8% DMSO; pipette tips are replaced after each dilution is made. Compound concentrations at this stage are 4-times the final concentration required in the assay plate. Cells are stimulated with compound or HBSS 0.8% DMSO by direct transfer of 50 μl/well from the compound dilution plate. The assay plate containing compound-treated cells is then incubated for 30 minutes at 37° C. A standard plate layout is used for all experiments.
Compound-treated cells, in addition to positive control wells (“max MIP1α”), are stimulated with 50 μL per well of 40 ng/ml MIP1α (R&D Systems catalogue number 270-LD, lyophilized stock reconstituted to 50 μg/ml with PBS 0.1% BSA). Negative control wells (“min HBSS”), are stimulated with 50 μl/well of HBSS in the absence of MIP1α. Final compound concentrations are now diluted 4-fold giving a top concentration of 10 μM; where added, the final concentration of MIP1α is 10 ng/ml. Cells are incubated with MIP1α for 3 minutes, at 37° C., 5% CO2. After the three minute stimulation period, the assay plate is kept ice cold at all times. Assay plates are centrifuged for 2 minutes at 300 g, 4° C. and supernatant is removed by gently inverting, and then blotting the plate on tissue. Cells are then washed by gentle addition of 150 μL/well of ice cold HBSS and centrifugation at 300 g, for 5 minutes at 4° C. Supernatant is
aspirated and the plate blotted as described above. […] Plates are incubated on ice for 20 minutes before centrifugation at 841 g for 5 minutes, 4° C.
Block buffer is aspirated from the MSD plate, and the plate washed four times with 300 μl/well Tris wash buffer. 25 μL of cell lysate is then transferred from the assay plate to the washed MSD plate which is sealed and incubated at room temperature for one hour with shaking. […] The plate is washed four times with 300 μl per well of Tris wash buffer and 150 μl per well of Read buffer is added, taking care to avoid the introduction of bubbles. The plate is immediately read using an MSD SECTOR Imager 6000. Results are exported in Excel and the percentage of phosphorylated AKT is calculated using the equation: % Phosphoprotein=((2*Phospho signal)/(Phospho signal+Total signal))*100. Compound-mediated inhibition of AKT phosphorylation is analysed using Prizm V Graphpad software.

[8] = molecular target: T2, PI 3-kinase beta (Rat-1_PI3Kbeta cells, Myr-HA-hp110 beta) (Homo sapiens, UniProt P42338); assay: Cellular p-Akt (S473) assay, Surefire format, assay I1; type: cell-based; conditions: non-asterisked data: version I1 (Surefire format); read-out: Assay I PI3Kβ IC50
T2 construct: expressed in transfected cells
T2 sequence (P42338 whole entry): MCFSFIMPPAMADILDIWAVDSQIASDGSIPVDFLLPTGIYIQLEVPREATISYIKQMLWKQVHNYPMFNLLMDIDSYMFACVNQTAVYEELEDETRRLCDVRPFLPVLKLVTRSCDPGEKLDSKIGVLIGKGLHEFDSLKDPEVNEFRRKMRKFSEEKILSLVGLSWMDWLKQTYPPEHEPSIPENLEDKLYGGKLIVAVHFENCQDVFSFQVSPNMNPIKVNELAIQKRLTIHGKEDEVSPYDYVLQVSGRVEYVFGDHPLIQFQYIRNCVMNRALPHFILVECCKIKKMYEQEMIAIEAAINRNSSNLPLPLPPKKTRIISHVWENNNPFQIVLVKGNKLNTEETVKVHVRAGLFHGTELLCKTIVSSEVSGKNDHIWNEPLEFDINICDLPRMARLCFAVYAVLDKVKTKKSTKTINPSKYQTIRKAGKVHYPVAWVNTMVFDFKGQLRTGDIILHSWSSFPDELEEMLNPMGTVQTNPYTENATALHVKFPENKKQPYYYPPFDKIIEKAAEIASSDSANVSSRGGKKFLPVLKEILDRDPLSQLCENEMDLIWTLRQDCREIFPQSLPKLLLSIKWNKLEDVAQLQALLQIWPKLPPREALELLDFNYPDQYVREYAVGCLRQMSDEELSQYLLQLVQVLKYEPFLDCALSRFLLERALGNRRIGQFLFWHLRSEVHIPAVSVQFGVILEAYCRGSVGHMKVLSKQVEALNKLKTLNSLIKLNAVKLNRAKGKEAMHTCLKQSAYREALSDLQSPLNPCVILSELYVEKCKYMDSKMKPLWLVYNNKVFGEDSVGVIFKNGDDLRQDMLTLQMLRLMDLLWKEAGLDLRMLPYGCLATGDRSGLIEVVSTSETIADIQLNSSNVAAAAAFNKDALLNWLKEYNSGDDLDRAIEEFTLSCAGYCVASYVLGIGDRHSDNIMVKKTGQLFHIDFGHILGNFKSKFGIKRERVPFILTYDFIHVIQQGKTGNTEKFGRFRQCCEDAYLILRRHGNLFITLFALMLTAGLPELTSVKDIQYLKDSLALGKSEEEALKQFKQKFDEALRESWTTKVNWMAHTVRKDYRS
Method: The assay allows characterization of kinase signaling in cells as well as measurement of kinase inhibitor effects.
(§12) Using Rat-1 cells stably expressing myr-HA-tagged versions of the human PI3Kdelta, PI3Kalpha, or PI3Kbeta p110 catalytic subunit isoforms, the assay was developed as a two-plate protocol in a 384-well format.
(§13) For compound testing, the cells were seeded at a density of 4000 (Rat-1_PI3Kdelta), 7500 (Rat-1_PI3Kalpha), or 6200 (Rat-1_PI3Kbeta) cells in 20 μl complete growth medium into cell culture treated 384-well plates and were grown at 37° C./5% CO2/90% humidity for 24 h. Shortly before compound transfer, the complete medium was removed, 30 μl assay buffer (DMEM high glucose, 1×MEM NEAA, 10 mM HEPES, 2 mM L-glutamine, 0.1% (w/v) BSA) was added and 10 μl of the compound predilutions were transferred to the cells.
as §5

[9] = molecular target: T3, PI 3-kinase delta (Rat-1_PI3Kdelta cells, Myr-HA-hp110 delta) (Homo sapiens, UniProt O00329); assay: Cellular p-Akt (S473) assay, Surefire format, assay J1; type: cell-based; conditions: non-asterisked data: version J1 (Surefire format); read-out: Assay J PI3Kδ IC50
T3 construct: expressed in transfected cells
T3 sequence (O00329 1-1044): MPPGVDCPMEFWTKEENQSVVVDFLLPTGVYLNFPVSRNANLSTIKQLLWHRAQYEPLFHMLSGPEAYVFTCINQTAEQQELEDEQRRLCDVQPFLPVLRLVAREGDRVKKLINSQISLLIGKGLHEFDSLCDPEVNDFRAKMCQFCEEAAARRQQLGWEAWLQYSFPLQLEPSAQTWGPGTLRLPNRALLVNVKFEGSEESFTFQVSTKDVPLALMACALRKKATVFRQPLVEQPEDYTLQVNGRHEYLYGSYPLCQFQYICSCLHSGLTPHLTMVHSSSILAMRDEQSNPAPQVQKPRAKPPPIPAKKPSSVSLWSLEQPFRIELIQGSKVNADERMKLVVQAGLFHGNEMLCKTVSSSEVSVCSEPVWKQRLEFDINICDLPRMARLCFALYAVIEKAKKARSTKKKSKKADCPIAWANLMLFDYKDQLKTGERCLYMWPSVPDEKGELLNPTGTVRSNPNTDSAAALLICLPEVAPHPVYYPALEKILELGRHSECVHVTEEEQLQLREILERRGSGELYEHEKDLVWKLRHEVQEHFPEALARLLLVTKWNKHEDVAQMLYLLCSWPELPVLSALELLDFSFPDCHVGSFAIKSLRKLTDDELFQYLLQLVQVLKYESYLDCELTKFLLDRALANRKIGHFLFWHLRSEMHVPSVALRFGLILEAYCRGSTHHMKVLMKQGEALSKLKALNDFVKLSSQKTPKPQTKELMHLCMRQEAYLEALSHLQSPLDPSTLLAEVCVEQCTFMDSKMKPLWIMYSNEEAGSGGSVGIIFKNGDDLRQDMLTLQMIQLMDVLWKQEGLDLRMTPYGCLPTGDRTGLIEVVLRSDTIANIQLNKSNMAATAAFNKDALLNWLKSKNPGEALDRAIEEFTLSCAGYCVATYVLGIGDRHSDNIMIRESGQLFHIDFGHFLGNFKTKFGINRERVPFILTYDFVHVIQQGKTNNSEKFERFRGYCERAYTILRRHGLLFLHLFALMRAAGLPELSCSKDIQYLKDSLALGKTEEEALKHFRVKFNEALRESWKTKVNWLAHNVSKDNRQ
From the text: (§14) Cellular Assays for PI 3-Kinase Alpha (H1), Beta (I1) and Delta (J1): Surefire Format
(§15) AlphaScreen (Amplified Luminescent Proximity Homogeneous Assay, ALPHA, Perkin Elmer) is a non-radioactive bead-based proximity assay technology to study biomolecular interactions in a homogenous microtiter plate format. The brand name SureFire denotes AlphaScreen assays that are adapted to quantify the phosphorylation of endogenous cellular proteins in cell lysates, by using matched antibody pairs, which consist of an anti-phospho-kinase and an anti-kinase antibody. The assay allows characterization of kinase signaling in cells as well as measurement of kinase inhibitor effects.
as §12, §13

[10] = molecular target: T4, PI 3-kinase alpha (Rat-1_PI3Kalpha cells, Myr-HA-hp110 alpha) (Homo sapiens, UniProt P42336); assay: Cellular p-Akt (S473) assay, Surefire format, assay H1; type: cell-based; conditions: non-asterisked data: version H1 (Surefire format); read-out: Assay H PI3Kα IC50
T4 construct: expressed in transfected cells
T4 sequence (P42336 whole entry): as the sequence (P42336 whole entry) above
From the text: as §14, §15, §12, §13

[11] = molecular target: Vps34 (Homo sapiens, UniProt Q8NEB9); assay: Kinase Glo luminescent kinase assay (Kglo), assay C; type: biochemical
Sequence of Vps34 (Q8NEB9 whole entry, species assumed): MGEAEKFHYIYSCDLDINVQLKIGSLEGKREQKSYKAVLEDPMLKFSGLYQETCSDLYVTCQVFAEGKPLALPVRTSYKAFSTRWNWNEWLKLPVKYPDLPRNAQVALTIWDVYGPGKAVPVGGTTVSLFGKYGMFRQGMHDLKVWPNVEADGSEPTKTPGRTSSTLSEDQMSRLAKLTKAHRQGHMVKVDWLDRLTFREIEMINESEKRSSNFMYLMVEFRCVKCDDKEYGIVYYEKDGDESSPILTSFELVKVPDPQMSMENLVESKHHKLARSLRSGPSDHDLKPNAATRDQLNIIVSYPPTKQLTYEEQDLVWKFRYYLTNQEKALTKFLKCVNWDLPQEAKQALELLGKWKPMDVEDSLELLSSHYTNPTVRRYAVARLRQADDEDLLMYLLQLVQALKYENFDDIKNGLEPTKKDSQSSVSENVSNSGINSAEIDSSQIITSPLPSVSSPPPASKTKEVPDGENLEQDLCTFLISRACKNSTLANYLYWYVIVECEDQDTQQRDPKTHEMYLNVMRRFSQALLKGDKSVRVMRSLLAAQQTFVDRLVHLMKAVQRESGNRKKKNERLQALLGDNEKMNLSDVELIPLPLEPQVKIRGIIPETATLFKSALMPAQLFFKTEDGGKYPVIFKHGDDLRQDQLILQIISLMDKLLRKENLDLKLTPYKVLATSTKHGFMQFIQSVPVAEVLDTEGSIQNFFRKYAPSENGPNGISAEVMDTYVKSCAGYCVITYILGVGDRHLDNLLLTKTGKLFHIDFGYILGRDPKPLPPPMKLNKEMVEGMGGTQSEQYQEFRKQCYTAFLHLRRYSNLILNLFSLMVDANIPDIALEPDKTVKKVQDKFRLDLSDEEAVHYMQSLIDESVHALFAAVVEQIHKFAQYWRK
Method: as §2, §3, §4, §5

[12] = molecular target: mTOR (Homo sapiens, UniProt P42345); assay: Lanthascreen kinase binding assay, assay G
Method: Lanthascreen™ Kinase Binding Assay for mTOR (G)
Binding of an inhibitor to the kinase competes for binding with the tracer, resulting in a loss of FRET.
50 nL of compound dilutions were dispensed onto white 384-well small volume polystyrene plate.

SMILES: Cc1ccc(S(=O)(=O)NCC2COCCN2C)cc1-c1cnc(N)c(-c2cn(C)nc2C)n1 (single isomer, unassigned) [Example 128.3a, (R or S)-3-(5-Amino-6-(1,3-dimethyl-1H-pyrazol-4-yl)pyrazin-2-yl)-4-methyl-N-((4-methylmorpholin-3-yl)methyl)benzenesulfonamide]
IC50 [1]: 0.241 µM
IC50 [2]: 0.23 µM
IC50 [3]: 0.57 µM
IC50 ([4]; TR-FRET Adapta assay, read-out: Assay E PI3Kγ IC50): 0.027 µM

IC50 [5]: 1.61 µM
Assay M RLM CI(int) [6]: 78 µL/min/mg
SMILES: Cc1cc(-c2nc(-c3cc(S(=O)(=O)NC4CCOCC4)ccc3C)cnc2N)ccn1 [Example 129.10]

IC50 [5]: 1.07 µM
IC50 [7]: 0.179 µM
SMILES: Cc1ccc(S(=O)(=O)NCC2(CO)CCOCC2)cc1-c1cnc(N)c(-n2cncn2)n1 [Example 127.50]

IC50 [1]: 0.047 µM
IC50 [8]: 8.16 µM
IC50 [9]: 1.04 µM
Assay M RLM CI(int) [6]: 56 µL/min/mg
IC50 [10]: 1.1 µM
SMILES: Cc1ncc(-c2nc(-c3cc(S(=O)(=O)NCCC(C)(C)O)ccc3C)cnc2N)o1 [Example 119.40, 3-(5-amino-6-(2-methyloxazol-5-yl)pyrazin-2-yl)-N-(3-hydroxy-3-methylbutyl)-4-methylbenzenesulfonamide]

Assay M RLM CI(int) [6]: 20 µL/min/mg
SMILES: Cc1ccc(S(=O)(=O)N[C@@H]2CNC[C@H]2O)cc1-c1cnc(N)c(-n2cncn2)n1 [Example 127.60]

IC50 [11]: 9.4 µM
SMILES: Cc1ncc(-c2nc(-c3cc(S(=O)(=O)NCC4(CO)CCOCC4)ccc3C)cnc2N)s1 [Example 45.9, 3-(5-Amino-6-(2-methylthiazol-5-yl)pyrazin-2-yl)-N-((4-(hydroxymethyl)tetrahydro-2H-pyran-4-yl)methyl)-4-methylbenzenesulfonamide]

activity in assay E (PI 3-kinase gamma) ([4]; result in words): not shown any activity
SMILES: Cc1ccc(S(=O)(=O)NCCC(C)(C)O)cc1-c1cnc(N)c(-c2cccnc2OC(C)C)n1 [Reference example 119.12, 3-(5-amino-6-(2-isopropoxypyridin-3-yl)pyrazin-2-yl)-N-(3-hydroxy-3-methylbutyl)-4-methylbenzenesulfonamide]

IC50 [11]: 9.1 µM
IC50 [12]: 9.1 µM
SMILES: Cc1cc(-c2nc(-c3cc(S(=O)(=O)NCC(C)(C)O)ccc3C)cnc2N)on1 [Example 88, 3-(5-Amino-6-(3-methylisoxazol-5-yl)pyrazin-2-yl)-N-(2-hydroxy-2-methylpropyl)-4-methylbenzenesulfonamide]

IC50 [7]: 0.85 µM
SMILES: Cc1ccc(S(=O)(=O)N[C@@H]2CCOC2)cc1-c1cnc(N)c(-n2cncn2)n1 [Example 127.20, (R)-3-(5-amino-6-(1H-1,2,4-triazol-1-yl)pyrazin-2-yl)-4-methyl-N-(tetrahydrofuran-3-yl)benzenesulfonamide]

IC50 [10]: 3 µM
SMILES: Cc1cc(-c2nc(-c3cc(S(=O)(=O)NCCC(C)(O)C(F)(F)F)ccc3C)cnc2N)ccn1 (stereo not drawn) [Example 129.13]

IC50 [8]: 2.59 µM
IC50 [7]: 0.172 µM
IC50 [9]: 1.04 µM
IC50 [10]: 0.63 µM
SMILES: Cc1ccc(S(=O)(=O)NCCC(C)(C)O)cc1-c1cnc(N)c(-c2ccnc(F)c2)n1 [Example 119.10, 3-(5-amino-6-(2-fluoropyridin-4-yl)pyrazin-2-yl)-N-(3-hydroxy-3-methylbutyl)-4-methylbenzenesulfonamide]

IC50 [8]: 4.86 µM
IC50 [9]: 7.03 µM
IC50 [10]: 4.95 µM
SMILES: Cc1ccc(S(=O)(=O)NCCC(C)(C)O)cc1-c1cnc(N)c(-c2cncnc2)n1 [Example 119.20, 3-(5-amino-6-(pyrimidin-5-yl)pyrazin-2-yl)-N-(3-hydroxy-3-methylbutyl)-4-methylbenzenesulfonamide]

IC50 ([12]; Lanthascreen kinase binding assay): 9.1 µM
SMILES: Cc1ccc(S(=O)(=O)NC[C@](C)(O)C(F)(F)F)cc1-c1cnc(N)c(-n2cncn2)n1 [Example 127.23, (S)-3-(5-amino-6-(1H-1,2,4-triazol-1-yl)pyrazin-2-yl)-4-methyl-N-(3,3,3-trifluoro-2-hydroxy-2-methylpropyl)benzenesulfonamide]

IC50 [5]: 1.15 µM
IC50 [8]: 6.99 µM
IC50 [7]: 0.042 µM
IC50 [9]: 0.63 µM
Assay M RLM CI(int) [6]: 77 µL/min/mg
IC50 [10]: 0.69 µM
SMILES: Cc1nc(-c2nc(-c3cc(S(=O)(=O)NCCC(C)(C)O)ccc3C)cnc2N)cs1 [Example 119.30, 3-(5-amino-6-(2-methylthiazol-4-yl)pyrazin-2-yl)-N-(3-hydroxy-3-methylbutyl)-4-methylbenzenesulfonamide]

IC50 [11]: 9.4 µM
SMILES: Cc1ccc(S(=O)(=O)NCC(C)(C)O)cc1-c1cnc(N)c(-c2nn(C)nc2C)n1 [Example 19, 3-[5-Amino-6-(2,5-dimethyl-2H-[1,2,3]triazol-4-yl)-pyrazin-2-yl]-N-(2-hydroxy-2-methyl-propyl)-4-methyl-benzenesulfonamide]

IC50 [7]: 0.411 µM
SMILES: Cc1ccc(S(=O)(=O)NCC2CCC(C)(C)O2)cc1-c1cnc(N)c(-n2cncn2)n1 (stereo in doubt) [Example 127.40, (R)-3-(5-amino-6-(1H-1,2,4-triazol-1-yl)pyrazin-2-yl)-N-((5,5-dimethyltetrahydrofuran-2-yl)methyl)-4-methylbenzenesulfonamide]
